Patent US20230270764A1, “COMPOSITION COMPRISING CANNABINOIDS, TERPENES, AND FLAVONOIDS FOR TREATING DEPRESSION” (priority 2020, published 2023)
Where two headings read alike, the source gives them in different places.

Key:
LPS-injected mice = experiment: Sucrose preference test in the LPS-induced model of depression; assay type: in vivo
BV2 microglial cells [1] = experiment: LPS-induced IL-1β release by BV2 microglia cell cultures (ELISA); assay type: cell-based, murine; details: for IL-1β secretion vs Veh plus LPS: Example 4, by itself at 5 µM, not at 1 or 2.5 µM; for IC50: Mus musculus
Procedure: The BV2 murine microglial cell line is used in these studies.
The BV2 cells are cultured at 37° C. in a humidified atmosphere with 5% CO2 in high D-glucose (4.5 g/L) Dulbecco’s modified Eagle’s medium (Sigma, Rehovot, Israel) supplemented with 5% heat-inactivated fetal bovine serum, streptomycin (100 µg/ml), and penicillin (100 units/ml) and sodium pyruvate (1 mM; all from Biological Industries Ltd., Kibbutz Beit Haemek, Israel). 24 hours before experiments with LPS stimulation, the BV2 cells are split into 24 well plates, 2×10^5 cells per well, covered with 1 ml of growth medium and allowed to attach overnight. 24 hr before experiments with α-synuclein, the BV2 cells are split into 96-well plates, 50,000 (5×10^4) cells per well, covered with 200 µl of growth medium and allowed to attach overnight. Cultures of BV2 microglia cells are first treated by an individual cannabinoid, or terpene or flavonoid selected from: Cannabidiol (CBD), Δ-9-tetrahydrocannabinol (THC), Δ-8-tetrahydrocannabinol (THC), cannabigerol (CBG), cannabichromene (CBC), cannabigerolic acid (CBGA), Cannabidiolic acid (CBDA), THC acid (THCA), cannabichromenic Acid (CBCA), Cannabidivarin (CBDV), tetrahydrocannabivarin (THCV), Cannabichromevarin (CBCV), Cannabichromerocin ([…]), Cannabivarin (CBV), Cannabicitran (CBT), Cannabinol (CBN), Cannabicyclol (CBL), Cannabigerorcin (CBGO), Cannabinodiol (CBND), β-caryophyllene, β-elemene, β-myrcene, linalool, α-pinene, β-pinene, eucalyptol, alpha-terpineol, valencene, geraniol (lemonol), bisabolol, nerolidol, ocimene, terpinolene, humulene, α-terpinene, camphene, fenchol, α-phellandrene, Δ3-carene, γ-cardinene, sabinene, limonene, β-amyrin, cycloartenol, cannflavin A, cannflavin B, kaempferol, quercetin, luteolin, apigenin, canniprene, orientin, β-sitosterol, vitexin, isovitexin, and chrysin. Additional cultures of BV2 microglia cells are treated by an individual cannabinoid, with at least one additional cannabinoid, and/or terpene, and/or flavonoid, and/or celecoxib. Additional cultures are exposed to the vehicle of these compounds (cremophor, ethanol and PBS, 1:1:18 (v/v/v)) (FIG. 2A). In some studies, cultures of BV2 microglia cells are treated by a specific whole plant cannabis extract, with or without supplementation with cannabinoid(s), and/or terpene(s) and/or flavonoid(s), and/or celecoxib (FIG. 2B).
For each individual cannabinoid mentioned above, 3-4 concentrations are used, ranging from 0.1 to 10 µM. For ultra-low dose Δ9-THC the concentration used is 0.01 µM. For each individual terpene or flavonoid mentioned above, 3-4 concentrations are used, ranging from 1 to 50 µM. For celecoxib, 3-4 concentrations are used, ranging from 0.1 to 10 µM. Two hours following the treatment, the cultures are exposed to one of the following microglia stimulators: LPS (Sigma L2630; Escherichia coli serotype O111:B4) is dissolved in D-PBS (Sigma, D8537) to a pre-stock concentration of 1 mg/ml, aliquoted and stored at -80° C. Stock solution of LPS at 10 ug/ml is prepared using sterile D-PBS, followed by filtering via 0.22 µm filter membrane, aliquoting and storing in -20° C. LPS is applied into the cell medium at a final concentration of 100 ng/ml. Poly I:C (Sigma, P1530) was first dissolved in sterile, molecular grade water to the concentration of 10 mg/ml (following the manufacturer’s instructions). This stock solution was further diluted to the concentration of 1 mg/ml in sterile PBS, and the aliquots stored in -20 °C.

C57BL/6 mice = experiment: Porsolt forced swim test; assay type: in vivo; details: CLX 10 mg/kg; CBD 5 mg/kg i.p.
Text: All experiments were approved by the Hebrew University of Jerusalem Ethics Committee on Animal Care and Use. […] All data are presented as mean ± SEM.

hippocampal microglia = experiment: Hippocampal microglia density and morphology (Iba-1 immunohistochemistry) in LPS-injected mice; assay type: in vivo
Procedure: Given the suppressive effect of CBD on hippocampal microglia numbers in LPS-injected mice, the effect of Cannabidiolic acid (CBDA), as well as a combination of CBD with the flavonoid kaempferol, was examined to determine if they also produce a similar effect. Mice were firstly injected (i.p.) with CBDA or CBD/kaempferol combination, and 1 hr later were injected with LPS ([…] in 10 ml/kg saline). Brains were removed 24 hr later and prepared for immunohistochemistry, using the microglia marker Iba-1.

BV2 microglial cells [2] = experiment: Poly I:C-induced TNFα release by BV2 microglia; assay type: cell-based, murine; details: 5 and 10 µM
Procedure: The BV2 cells are cultured at 37° C. in a humidified atmosphere with 5% CO2 in high D-glucose (4.5 g/L) Dulbecco’s modified Eagle’s medium (Sigma, Rehovot, Israel) supplemented with 5% heat-inactivated fetal bovine serum, streptomycin (100 µg/ml), and penicillin (100 units/ml) and sodium pyruvate (1 mM; all from Biological Industries Ltd., Kibbutz Beit Haemek, Israel). 24 hours before experiments with LPS stimulation, the BV2 cells are split into 24 well plates, 2×10^5 cells per well, covered with 1 ml of growth medium and allowed to attach overnight. 24 hr before experiments with α-synuclein, the BV2 cells are split into 96-well plates, 50,000 (5×10^4) cells per well, covered with 200 µl of growth medium and allowed to attach overnight. […]

[3] = adult (6-9 months-old) male mice, acute CBD
[4] = young-adult male mice, CBD 30 mg/kg i.p. 3 consecutive days
[5] = young-adult female mice, CBDA 1 mg/kg (not 0.5 or 5)
[6] = young-adult male mice, CBDA 1 mg/kg
[7] = young-adult male mice, CBDA 1 mg/kg (not 5)

C=C(C)[C@@H]1CCC(C)=C[C@H]1c1c(O)cc(CCCCC)cc1O [CBD, cannabidiol]
sucrose preference vs vehicle-LPS group (LPS-injected mice; Example 18, celecoxib 10, 20, 30 mg/kg or CBD 30 mg/kg by themselves): no significant effects
sucrose consumption, LPS-injected groups (LPS-injected mice; [3]): significant difference between the CBD- and vehicle-treated group
sucrose preference (LPS-injected mice; [3]): reduction in the negative effect of LPS on sucrose preference
sucrose preference and sucrose consumption (LPS-injected mice; adult and young adult female mice, acute CBD, saline or LPS): None of these parameters was influenced by treatment with CBD
sucrose preference compared with the saline-injected control group (LPS-injected mice; adult female mice, LPS, CBD 30 mg/kg, CBD 30 mg plus kaempferol 60 mg): significantly reduced sucrose preference
LPS-induced decreases in sucrose preference and sucrose consumption (LPS-injected mice; young adult (2.5-3 months old) male mice, acute CBD): None of these parameters was influenced by treatment with CBD
sucrose consumption, main effect of CBD (LPS-injected mice; young-adult female mice, acute CBD, difference among saline-injected mice): significantly reduced
LPS-induced reduction in sucrose consumption (LPS-injected mice; [4]): no effect
LPS-induced suppression of sucrose preference (LPS-injected mice; [4]): completely reversed
IL-1β levels (BV2 microglial cells [1]; Example 3, 5 and 10 µM): effectively reduced
IL-1β secretion vs Veh plus LPS (BV2 microglial cells [1]): effective in decreasing IL-1β
IL-1β release vs Veh plus LPS (BV2 microglial cells [1]; Example 5, alone at 5 µM, no effect at 1 and 2.5 µM): decreased the IL-1β levels significantly
LPS-induced IL-1β secretion (BV2 microglial cells [1]; Example 7, CBD 5 µM by itself (p<0.001)): significant suppression of IL-1β secretion
LPS-induced IL-1β release (BV2 microglial cells [1]; Example 25, CannA, CannB 2.5, 5 and 10 µM, CBD, CannC 5 and 10 µM): significantly reduced
IC50 (BV2 microglial cells [1]; BV-2, read-out: CBD IC50, LPS-induced IL-1β release, Example 4, addition of 1 µM kaempferol): 3300 nM
IC50 (BV2 microglial cells [1]; BV-2, read-out: CBD IC50, LPS-induced IL-1β release, Example 4, addition of 2.5 µM kaempferol): 2100 nM
IC50 (BV2 microglial cells [1]; BV-2, read-out: CBD IC50, LPS-induced IL-1β release, Example 4, addition of 5 µM kaempferol): 1100 nM
IC50 (BV2 microglial cells [1]; BV-2, read-out: CBD IC50, LPS-induced IL-1β release, Example 5, addition of 1 µM quercetin): 2100 nM
IC50 (BV2 microglial cells [1]; BV-2, read-out: CBD IC50, LPS-induced IL-1β release, Example 5, addition of 2.5 µM quercetin): 1700 nM
IC50 (BV2 microglial cells [1]; BV-2, read-out: CBD IC50, LPS-induced IL-1β release, Example 5, addition of 5 µM quercetin): 500 nM
IC50 (BV2 microglial cells [1]; BV-2, read-out: IC50 for IL-1β inhibition, Example 25 (FIG. 25F), extracts calculated on dominant cannabinoid): 4700 nM
IC50 (BV2 microglial cells [1]; BV-2, read-out: IC50 for inhibiting LPS-induced IL-1β release, Example 4 (FIG. 5D), by itself): 4500 nM
IC50 (BV2 microglial cells [1]; BV-2, read-out: IC50 for inhibiting LPS-induced IL-1β release, Example 5 (FIG. 6D), by itself): 3300 nM
immobility time, each compound by itself (C57BL/6 mice): no significant effects
hippocampal microglia density, CBD- vs Veh-treated LPS mice (hippocampal microglia; [4]): significantly reduced
Poly I:C-induced TNFα release (BV2 microglial cells [2]): significantly decreased

C=C(C)[C@@H]1CCC(C)=C[C@H]1c1c(O)cc(CCCCC)c(C(=O)O)c1O [CBDA, Cannabidiolic acid]
sucrose consumption vs Vehicle-treated LPS-injected mice (LPS-injected mice; [5]): significantly increased
sucrose preference vs Vehicle-treated LPS-injected mice (LPS-injected mice; young-adult female mice, CBDA 1 mg/kg (not 0.5 or 5) i.p. 1 hr before LPS 330 µg/kg): significantly increased
sucrose consumption vs Vehicle-treated LPS-injected mice (LPS-injected mice; [6]): significantly increased
sucrose preference vs Vehicle-treated LPS-injected mice (LPS-injected mice; [7]): significantly increased
sucrose consumption vs Vehicle-treated LPS-injected mice (LPS-injected mice; young-adult male mice, CBDA 5 mg/kg, CBD 25 mg/kg and CBDA 1 mg/kg): significant increase
hippocampal microglia density vs Vehicle (hippocampal microglia; [5]): significantly reduced
number of branch points of microglia processes vs Vehicle (hippocampal microglia; young-adult female mice, CBDA 5 mg/kg): significantly increased
microglia soma area and processes length (hippocampal microglia; young-adult female mice, CBDA 0.5, 1, 5 mg/kg): no significant difference
number of branch points of microglia processes vs Vehicle (hippocampal microglia; [6]): significantly increased
hippocampal microglia density vs Vehicle (hippocampal microglia; [7]): significantly reduced
microglia soma area and processes length (hippocampal microglia; young-adult male mice, CBDA 1, 5 mg/kg, CBD 25 and CBDA 1 mg/kg): no significant difference

O=c1c(O)c(-c2ccc(O)cc2)oc2cc(O)cc(O)c12 [kaempferol]
IL-1β secretion vs Veh plus LPS (BV2 microglial cells [1]): effective in decreasing IL-1β
IC50 (BV2 microglial cells [1]; BV-2, Example 4 (FIG. 5D), by itself, read-out: IC50 for inhibiting LPS-induced IL-1β release): 6200 nM
